Results reported in patent US20180148687A1 (priority 2015, published 2018).
Read-outs that look alike come from different tables or passages of the source.

What was measured:
[1] = test system: BD-iNPC derived sensory neurons; test: In vitro chemotherapy induced neuropathy model: neurite length and cell count; assay type: cell-based, human; conditions: 48 hours after treatment
Source text: This miniaturized and automated approach illustrates the potential utility of these converted cells as an in vitro model of human axonopathy for drug-discovery and form the basis to expand to other PNS and CNS disorders.

P2X3 receptors = target: T1, P2X3 receptors (Homo sapiens, UniProt P56373); assay type: cell-based
T1 sequence (P56373 1-397): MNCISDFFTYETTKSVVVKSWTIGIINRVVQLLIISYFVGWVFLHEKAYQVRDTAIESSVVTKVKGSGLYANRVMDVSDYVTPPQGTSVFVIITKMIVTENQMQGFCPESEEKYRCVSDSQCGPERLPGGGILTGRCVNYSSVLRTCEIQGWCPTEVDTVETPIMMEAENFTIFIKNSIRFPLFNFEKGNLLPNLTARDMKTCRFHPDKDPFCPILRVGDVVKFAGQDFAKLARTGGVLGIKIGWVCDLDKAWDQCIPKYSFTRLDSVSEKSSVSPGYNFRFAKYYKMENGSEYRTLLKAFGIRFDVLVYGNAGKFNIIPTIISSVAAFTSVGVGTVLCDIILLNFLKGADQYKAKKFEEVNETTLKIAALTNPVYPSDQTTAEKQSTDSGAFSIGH
Experimental: (§1) Differentiated cells at 1-2 weeks were loaded with Fluo-4-AM fluorescence dye (Invitrogen, Calif.) for 1 hr incubation followed by 45 mins period for de-esterification. Cells were washed and incubated in Hanks' balanced salt solution (HBSS), supplemented with 25 mM HEPES buffer, 5.5 mM Glucose. Calcium flux was monitored using an Olympus IX81 inverted epi-fluorescence microscope (Olympus, Markham, ON) coupled to a xenon arc lamp (EXFO, Quebec, QC). Indicated agonists, α,β-methylene-ATP or capsaicin, were diluted in the aforementioned solution and added to the well to give the final stimulation concentration (30 μM α,β-methylene-ATP, 1 μM capsaicin) using a dropping pipette and aspirator system. Fluorescence images were collected using an EMCCD camera (Photometrics, Tucson, Ark.) every 2 s through a GFP filter cube (Semrock, Rochester, N.Y.). In a subset of wells, ionomycin was added as a second stimulation for the dye loading control. […] Off-line analysis of the intensity pattern of Fluo-4 signal was performed in ImageJ (NIH, Bethesda, Md.).

[2] = test system: voltage-activated sodium channels; assay type: cell-based, human
TRPV1 vanilloid receptor = target: T2, TRPV1 vanilloid receptor (Homo sapiens, UniProt Q8NER1); test: Calcium imaging (Fluo-4) of BD-iNPC derived sensory neurons, capsaicin response; assay type: cell-based; conditions: 1 μM
T2 construct: endogenous in cells; host or cells: nociceptive sensory neurons differentiated from human blood derived iNPCs
Experimental: as §1

T2 sequence (Q8NER1 whole entry): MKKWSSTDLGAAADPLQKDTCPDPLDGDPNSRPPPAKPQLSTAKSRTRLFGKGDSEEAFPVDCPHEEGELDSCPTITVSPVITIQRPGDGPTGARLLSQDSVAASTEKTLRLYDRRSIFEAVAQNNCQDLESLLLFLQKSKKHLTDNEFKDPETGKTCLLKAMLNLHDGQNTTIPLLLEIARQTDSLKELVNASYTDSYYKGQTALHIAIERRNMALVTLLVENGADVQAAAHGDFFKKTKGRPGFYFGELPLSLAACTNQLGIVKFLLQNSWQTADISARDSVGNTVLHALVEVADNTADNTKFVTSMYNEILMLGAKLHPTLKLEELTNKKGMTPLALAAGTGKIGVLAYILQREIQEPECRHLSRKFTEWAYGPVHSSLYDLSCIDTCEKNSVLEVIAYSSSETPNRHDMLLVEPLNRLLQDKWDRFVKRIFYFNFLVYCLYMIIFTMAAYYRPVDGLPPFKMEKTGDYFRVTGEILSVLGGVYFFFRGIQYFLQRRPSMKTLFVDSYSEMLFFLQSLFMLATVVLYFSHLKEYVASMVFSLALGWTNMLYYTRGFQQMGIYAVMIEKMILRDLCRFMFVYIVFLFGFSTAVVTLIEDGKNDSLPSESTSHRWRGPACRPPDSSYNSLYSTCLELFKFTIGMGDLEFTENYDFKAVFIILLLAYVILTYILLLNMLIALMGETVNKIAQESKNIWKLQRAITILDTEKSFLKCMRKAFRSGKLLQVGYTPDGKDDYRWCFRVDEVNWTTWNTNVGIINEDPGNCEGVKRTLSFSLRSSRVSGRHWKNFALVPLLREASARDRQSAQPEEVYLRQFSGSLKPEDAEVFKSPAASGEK

Compound: CC(=O)O[C@H]1C(=O)[C@@]2(C)[C@H]([C@H](OC(=O)c3ccccc3)[C@]3(O)C[C@H](OC(=O)[C@H](O)[C@@H](NC(=O)c4ccccc4)c4ccccc4)C(C)=C1C3(C)C)[C@]1(OC(C)=O)CO[C@@H]1C[C@@H]2O [Taxol]
- neurite length of sensory neurons [1]: dose-dependent reduction in length
- viability (cell count) of sensory neurons [1]: without concomitant loss of viability

Compound: O=C(O)c1cc(C(=O)O)c(C(=O)N(Cc2cccc(Oc3ccccc3)c2)[C@H]2CCCc3ccccc32)cc1C(=O)O [A-317491]
- calcium-response to α,β-methylene ATP (P2X3 receptors; antagonist added 15 min before calcium imaging, 30 μM α,β-methylene-ATP stimulation): significantly decreased

Compound: Nc1ncnc2c1ncn2[C@@H]1O[C@H](COP(=O)(O)CP(=O)(O)OP(=O)(O)O)[C@@H](O)[C@H]1O [α,β-methylene-ATP]
- calcium transients in BD-iNPC derived neurons (P2X3 receptors; 30 μM): could evoke calcium transients
- calcium flux response (P2X3 receptors; 30 μM, continued culture to day 14): robust response
- calcium flux response (P2X3 receptors; 30 μM, neurons at day 7 post-induction): minimal response

Compound: NC1=N[C@H](O)[C@H]2[C@H]3O[C@]4(O)O[C@@H]([C@@H](O)[C@@]2(N1)[C@@H]4O)[C@]3(O)CO [tetrodotoxin]
- rapidly activating and inactivating inward currents [2]: blocked

Compound: COc1cc(CNC(=O)CCCC/C=C/C(C)C)ccc1O [capsaicin]
- calcium transients in BD-iNPC derived neurons (TRPV1 vanilloid receptor): could evoke calcium transients
